Among the test systems are BT-549 breast; HT29 colon; NCI-H522 lung; OVCAR-8 ovarian; SN12C renal; TK-10 renal; UACC-62 melanoma; A498 renal.
Common to all, as to experiment: inhibition of tumour cell growth, NCI panel, 48 h

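Values below derive from 48-hour exposures of cells grown in 96-well plates, with endpoints linearly interpolated between the two concentrations bracketing the appropriate inhibition level. GI50 marks 50% less growth. The concentration for full growth arrest is given as TGI.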 Where only a bound is given, the exact number is not on record here.

Regarding `O=C1CCc2ccc3c(c21)CC1(Cc2ccccc2C1)C3`, the TGI in the assay on BT-549 breast was over 100 µM; in the assay on HT29 colon, 22 µM; in the assay with NCI-H522 lung, 92.4 µM; in the assay with OVCAR-8 ovarian it was over 100 µM; with SN12C renal it was over 100 µM; in the assay on TK-10 renal it was 99.3 µM.

Take `Cc1nn(C(=O)c2ccc(Cl)cc2)c2c1C(c1ccc(O)cc1)SC(N)=N2` (stereo not drawn): the TGI with BT-549 breast, in the assay with HT29 colon, with NCI-H522 lung, in the assay with OVCAR-8 ovarian, in the assay with SN12C renal and in the assay with TK-10 renal was over 10 µM in each case. In addition, the TGI in the assay on UACC-62 melanoma was over 10 µM.

Consider `CC(C)(C)OC(=O)n1c(-c2ccccc2F)cc(=O)c2cc3c(cc21)OCO3`, for which the TGI was over 94.7 µM in the assay with A498 renal; over 100 µM in the assay with BT-549 breast; 0.368 µM in the assay with HT29 colon; 20.4 µM in the assay on OVCAR-8 ovarian; over 100 µM in the assay with TK-10 renal; over 100 µM in the assay with UACC-62 melanoma.

Regarding `c1csc(-c2c3ccc(=[N+]4CCCCC4)cc-3oc3cc(N4CCCCC4)ccc23)c1`, the GI50 with A498 renal was 0.0683 µM; in the assay on BT-549 breast, 0.135 µM; in the assay on TK-10 renal, 0.15 µM; in the assay with UACC-62 melanoma, 0.159 µM. Besides, the TGI with A498 renal worked out at 0.453 µM; in the assay on BT-549 breast it was 0.32 µM; in the assay on TK-10 renal, 0.34 µM; in the assay on UACC-62 melanoma, 0.356 µM.

Take `Nc1nc(Nc2ccc(Cl)cc2)sc1C(=O)c1cccs1`: the TGI in the assay with A498 renal was 72.9 µM; with BT-549 breast it was over 100 µM; in the assay on HT29 colon, over 100 µM; with SN12C renal, 50.6 µM; in the assay with TK-10 renal, 36.3 µM; in the assay on UACC-62 melanoma it was over 100 µM.

Turning to `O=C(CNCc1ccccc1)Oc1c(Cl)c(Cl)c(Cl)c(Cl)c1Cl`, the TGI was 44.2 µM with BT-549 breast; over 100 µM with HT29 colon; 75.9 µM with NCI-H522 lung; 48.8 µM in the assay on OVCAR-8 ovarian; over 100 µM in the assay with SN12C renal; over 100 µM in the assay with TK-10 renal. Further, the TGI with UACC-62 melanoma stood at 51.5 µM.

In the case of `OCC(O)C(O)C(O)/C=N/Nc1nc(O)c(/C=C2\C=Nc3ccccc32)[nH]1` (stereo not drawn), the TGI in the assay with BT-549 breast, in the assay on HT29 colon, in the assay with NCI-H522 lung, in the assay with OVCAR-8 ovarian, in the assay on SN12C renal and with TK-10 renal was over 100 µM throughout. Also, the TGI with UACC-62 melanoma is over 100 µM.

For the molecule `CC(C)(C)OC(=O)C1C(=O)NC(=O)CC1C(COCc1ccccc1)OCc1ccccc1` (stereo not drawn), the TGI in the assay with BT-549 breast is 55.6 µM; in the assay with HT29 colon, 37.1 µM; in the assay with NCI-H522 lung it was 35.8 µM; with OVCAR-8 ovarian, over 100 µM; in the assay on TK-10 renal, over 100 µM.

`NS(=O)(=O)c1ccc(NC(NC(=O)C(C(F)(F)F)C(F)(F)F)(C(F)(F)F)C(F)(F)F)cc1`: the TGI with BT-549 breast, with HT29 colon, in the assay with NCI-H522 lung, in the assay with OVCAR-8 ovarian, in the assay with SN12C renal and in the assay on TK-10 renal was over 100 µM in each case. In addition, the TGI in the assay with UACC-62 melanoma was over 100 µM.

As to `Cc1cc(/N=C/c2ccc(C#N)cc2)n(-c2ccccc2)n1`, the TGI in the assay on BT-549 breast, with HT29 colon, in the assay with NCI-H522 lung, in the assay with OVCAR-8 ovarian, in the assay on SN12C renal and with TK-10 renal was over 100 µM in each case. The molecule also showed a TGI with UACC-62 melanoma of over 100 µM.

As for `C[C@]1(S(=O)(=O)c2ccccc2)C[C@H]2N(Cc3ccccc3)[C@@H]1CCC21OCCO1`, the TGI in the assay on BT-549 breast, in the assay with HT29 colon, in the assay on NCI-H522 lung, in the assay on OVCAR-8 ovarian, in the assay with SN12C renal and in the assay with UACC-62 melanoma was over 100 µM throughout.

In the case of `Nc1nc(Nc2ccccc2)sc1C(=O)c1c[nH]c2ccccc12`, the TGI with A498 renal stood at 30.6 µM; in the assay with BT-549 breast, 29.8 µM; in the assay on HT29 colon, 14.6 µM; in the assay on SN12C renal, 34.4 µM; with TK-10 renal, 11 µM; in the assay with UACC-62 melanoma it was 28.9 µM.

Consider `S=C1CC(c2ccccc2)Sc2ccc(Cl)cc2N1` (stereo not drawn), for which the TGI in the assay with BT-549 breast, with HT29 colon, in the assay on NCI-H522 lung, with OVCAR-8 ovarian, in the assay with SN12C renal and in the assay on TK-10 renal was over 100 µM each time. This molecule gave a TGI with UACC-62 melanoma of over 100 µM.

As for `O=C(O)CSC(NC(=O)C(C(F)(F)F)C(F)(F)F)(C(F)(F)F)C(F)(F)F`, the TGI in the assay with A498 renal was over 100 µM; in the assay with BT-549 breast, over 100 µM; in the assay with HT29 colon, over 100 µM; in the assay on OVCAR-8 ovarian, 83.3 µM; in the assay on SN12C renal it was over 100 µM; in the assay with TK-10 renal, over 100 µM.

In the case of `CCOC(=O)C1CN(C2CC2)CCC1=O` (stereo not drawn), the TGI in the assay with BT-549 breast, with HT29 colon, with OVCAR-8 ovarian, with SN12C renal, in the assay with TK-10 renal and in the assay with UACC-62 melanoma was over 100 µM in each case.

As for `CCCCC/C(C=O)=C\c1ccccc1`, the TGI in the assay on A498 renal, in the assay on BT-549 breast, with HT29 colon, with OVCAR-8 ovarian, in the assay with TK-10 renal and in the assay with UACC-62 melanoma was over 100 µM throughout.

(Values after PubChem BioAssay (NCI).)
